Tested on: Salmonella enteritidis
Test: In vitro testing: SE recovery from inoculated chick starter feed
Format: cell-based
Details: feed with increasing amounts of sodium nitrate (1-1000 ppm), 42° C. for 24 hours, vs control (FIG. 1)
Procedure: Briefly, 1.25 grams of chick starter feed was measured into 13×100 mm borosilicate tubes and autoclaved. Nitrate was mixed into the feed before autoclaving at concentrations of 1000 ppm, 100 ppm, 10 ppm, or 1 ppm (Sodium Nitrate, Sigma Chemical Co., St. Louis, Mo.).
The feed also contained 0.1% lactose as a prebiotic. The feed was suspended in 4.5 mL sterile saline and inoculated with 0.5 mL of Salmonella enteriditis (SE) culture containing approximately 10^4 cfu/ml. The tubes were treated with either 0.6 ml of 10^6 cfu/ml of FloraMax-B11® probiotic or saline as a negative control. After administering the treatment, the tubes were agitated and incubated at 42° C. for 24 hours. The tubes then were agitated and the content was serially diluted and plated on Brilliant Green Agar (BGA) containing novobiocin (250 ml) and nalidixic acid (20 μl/ml) to select for SE. Typical SE colonies were counted after 24 hours of incubation.

O=[N+]([O-])[O-].[Na+] [sodium nitrate, Sodium Nitrate]
recovery of SE: decreased recovery of SE as compared to the control

Source: patent US20130017174A1, “COMPOSITIONS AND METHODS FOR INCREASING HEALTH AND REDUCING PATHOGENIC BACTERIA IN ANIMALS” (The Board of Trustees of the University of Arkansas, priority 2011, published 2013)
